Test results from patent US20250066389A1, “HETEROCYCLIC AMIDES AND METHODS OF USING THE SAME” (Rgenta Therapeutics, Inc., priority 2021, published 2025).

These compounds were tested on PMS1 (assay: Mini-Gene Reporter Assay—PMS1 (firefly luciferase mini-gene reporter transiently transfected into HEK293 cells)). Settings: Homo sapiens; at 5 uM; mini-gene firefly luciferase reporter in HEK293 cells; read-out: PMS1 % Effect at 5 uM.
Assay type: cell-based
Method in brief: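 Luminescence (RLU) read-out of exon inclusion: compound dilutions, tested in duplicate, act on transiently transfected HEK293 cells carrying a firefly luciferase reporter fused downstream of the PMS1 skipped-exon region. Potency derived by Levenberg-Marquardt curve fitting, with percent effect at 5 μM.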

Row | Compound | activation at 5 µM [%]
1 | CCOc1cc2nn(C)cc2cc1C(=O)Nc1cnc(NCCC2CCCNC2)nc1 (stereo not shown) [Compound 462] | < 50
2 | CCOc1cc2nn(C)cc2cc1C(=O)Nc1cnc(N2CCC(NC)C2)nc1 (stereo not shown) [Compound 463] | > 75
3 | CCOc1cc2nn(C)cc2cc1C(=O)Nc1cnc(N2C[C@H]3CNC[C@H]3C2)nc1 [Compound 464] | 50 to 75
4 | CCOc1cc2nn(C)cc2cc1C(=O)Nc1cnc(NC[C@@H]2CCNC2)nc1 [Compound 465] | < 50
5 | CCOc1cc2nn(C)cc2cc1C(=O)Nc1cnc(N2CCCC(NC)C2)nc1 (stereo not shown) [Compound 466] | < 50
6 | CCOc1cc2nn(C)cc2cc1C(=O)Nc1cnc(N2C[C@@H]3C[C@H]2CN3)nc1 [Compound 467] | < 50
7 | CCOc1cc2nn(C)cc2cc1C(=O)Nc1cnc(NCC2CNC2)nc1 [Compound 468] | < 50
8 | CCOc1cc2nn(C)cc2cc1C(=O)Nc1cnc(NCC2CCCCN2)nc1 (stereo not shown) [Compound 469] | < 50
9 | CCOc1cc2nn(C)cc2cc1C(=O)Nc1cnc(NC[C@@H]2CCCN2)nc1 [Compound 470] | < 50
10 | CCOc1cc2nn(C)cc2cc1C(=O)Nc1cnc(NCCNC)nc1 [Compound 472] | < 50
11 | CCOc1cc2nn(C)cc2cc1C(=O)Nc1cnc(N2CCC(NC)CC2)nc1 [Compound 473] | < 50
12 | CCOc1cc2nn(C)cc2cc1C(=O)Nc1cnc(NC[C@H]2CCCN2)nc1 [Compound 475] | < 50
13 | CCOc1cc2nn(C)cc2cc1C(=O)Nc1cnc(N2CCNCC2)nc1 [Compound 477] | 50 to 75
14 | CCOc1cc2nn(C)cc2cc1C(=O)Nc1cnc(N(C)C2CCNCC2)nc1 [Compound 478] | 50 to 75
15 | CCOc1cc2nn(C)cc2cc1C(=O)Nc1cnc(N2CC(N)C2)nc1 [Compound 479] | < 50
16 | CCOc1cc2nn(C)cc2cc1C(=O)Nc1cnc(N2CCN[C@@H](C)C2)nc1 [Compound 480] | > 75
17 | CCOc1cc2nn(C)cc2cc1C(=O)Nc1cnc(N2CCC(N)CC2)nc1 [Compound 481] | < 50
18 | CCOc1cc2nn(C)cc2cc1C(=O)Nc1cnc(NCC2CCCNC2)nc1 (stereo not shown) [Compound 483] | < 50
19 | CCOc1cc2nn(C)cc2cc1C(=O)Nc1cnc(N(C)CCNC)nc1 [Compound 484] | < 50
20 | CCOc1cc2nn(C)cc2cc1C(=O)Nc1cnc(N2CCCNCC2)nc1 [Compound 485] | < 50

Row | Compound | activation at 5 µM [%]
21 | CCOc1cc2nn(C)cc2cc1C(=O)Nc1cnc(N2CCNC(C)C2)nc1 (stereo not shown) [Compound 487] | > 75
22 | CCOc1cn2nc(C)cc2cc1C(=O)Nc1cnc(NCC2(F)CNCCOC2)cn1 (stereo not shown) [Compound 489] | < 50
23 | CCOc1cn2nc(C)cc2cc1C(=O)Nc1cnc(N2CCNC(CC(F)(F)F)C2)cn1 (stereo not shown) [Compound 490] | 50 to 75
24 | CCOc1cn2nc(C)cc2cc1C(=O)Nc1cnc(N2CC3CCC2C2CNCC32)cn1 (stereo not shown) [Compound 492] | 50 to 75
25 | CCOc1cn2nc(C)cc2cc1C(=O)Nc1cnc(NCC2(F)CC(N)C2)cn1 (stereo not shown) [Compound 493] | < 50
26 | CCOc1cn2nc(C)cc2cc1C(=O)Nc1cnc(NC2CCCCC23CCNC3)cn1 (stereo not shown) [Compound 494] | < 50
27 | CCOc1cn2nc(C)cc2cc1C(=O)Nc1cnc(NCC2CNCC23CC3)cn1 (stereo not shown) [Compound 496] | > 75
28 | CCOc1cn2nc(C)cc2cc1C(=O)Nc1cnc(NC2CCC3CC2CN3)cn1 (stereo not shown) [Compound 497] | > 75
29 | CCOc1cn2nc(C)cc2cc1C(=O)Nc1cnc(N2CCCCC3(CCNC3)C2)cn1 (stereo not shown) [Compound 499] | < 50
30 | CCOc1cn2nc(C)cc2cc1C(=O)Nc1cnc(NC2CNCC2(C)C)cn1 (stereo not shown) [Compound 500] | < 50
31 | CCOc1cn2nc(C)cc2cc1C(=O)Nc1cnc(N2CCC(N)(CC)CC2)cn1 [Compound 502] | > 75
32 | CCOc1cn2nc(C)cc2cc1C(=O)Nc1cnc(N2CC(NC)C(C)(C)C2)cn1 (stereo not shown) [Compound 503] | > 75
33 | CCOc1cn2nc(C)cc2cc1C(=O)Nc1cnc(N2CCC(C3(O)CCNCC3)CC2)cn1 [Compound 505] | 50 to 75
34 | CCOc1cn2nc(C)cc2cc1C(=O)Nc1cnc(N2CCC(n3ncc4c3CNC4)CC2)cn1 [Compound 507] | < 50
35 | CCOc1cn2nc(C)cc2cc1C(=O)Nc1cnc(NC2CNCC23CCC3)cn1 (stereo not shown) [Compound 509] | < 50
36 | CCOc1cn2nc(C)cc2cc1C(=O)Nc1cnc(N2CCOC3(CCCNC3)C2)cn1 (stereo not shown) [Compound 510] | < 50
37 | CCOc1cn2nc(C)cc2cc1C(=O)Nc1cnc(NC2CCN(C(=O)CCCNC)CC2)cn1 [Compound 513] | < 50
38 | CCOc1cn2nc(C)cc2cc1C(=O)Nc1cnc(NCC[C@@H]2CCNC2)cn1 [Compound 516] | < 50
39 | CCOc1cn2nc(C)cc2cc1C(=O)Nc1cnc(N2CCC(NCC3CC3)CC2)cn1 [Compound 517] | > 75
40 | CCOc1cn2nc(C)cc2cc1C(=O)Nc1cnc(NC(CNC)Cc2ccccc2)cn1 (stereo not shown) [Compound 518] | < 50

Row | Compound | activation at 5 µM [%]
41 | CCOc1cn2nc(C)cc2cc1C(=O)Nc1cnc(N(C)C[C@@H]2CCCCN2)cn1 [Compound 519] | > 75
42 | CCOc1cn2nc(C)cc2cc1C(=O)Nc1cnc(N2CCCC(C)(CN)C2)cn1 (stereo not shown) [Compound 522] | < 50
43 | CCOc1cn2nc(C)cc2cc1C(=O)Nc1cnc(N2CCC(COC3CCNC3)CC2)cn1 (stereo not shown) [Compound 523] | < 50
44 | CCOc1cn2nc(C)cc2cc1C(=O)Nc1cnc(N2CCN(CC3CCCNC3)CC2)cn1 (stereo not shown) [Compound 524] | < 50
45 | CCOc1cn2nc(C)cc2cc1C(=O)Nc1cnc(N2CCCC2CNC)cn1 (stereo not shown) [Compound 525] | 50 to 75
46 | CCOc1cn2nc(C)cc2cc1C(=O)Nc1cnc(N(C)C[C@@H]2CCCN2)cn1 [Compound 526] | > 75
47 | CCOc1cn2nc(C)cc2cc1C(=O)Nc1cnc(N2CCC(CCNC)CC2)cn1 [Compound 527] | < 50
48 | CCOc1cn2nc(C)cc2cc1C(=O)Nc1cnc(NCC2(C)CCNC2)cn1 (stereo not shown) [Compound 528] | < 50
49 | CCOc1cn2nc(C)cc2cc1C(=O)Nc1cnc(N2CCOC3(CCNC3)C2)cn1 (stereo not shown) [Compound 529] | 50 to 75
50 | CCOc1cn2nc(C)cc2cc1C(=O)Nc1cnc(N2CCC3(CCCN3)CC2)cn1 [Compound 530] | > 75
51 | CCOc1cn2nc(C)cc2cc1C(=O)Nc1cnc(NCCNCCOC)cn1 [Compound 531] | < 50
52 | CCOc1cn2nc(C)cc2cc1C(=O)Nc1cnc(NC[C@@H]2CC(F)(F)CN2)cn1 [Compound 532] | < 50
53 | CCOc1cn2nc(C)cc2cc1C(=O)Nc1cnc(N2CC3CNCC(C3)C2)cn1 [Compound 533] | < 50
54 | CCOc1cn2nc(C)cc2cc1C(=O)Nc1cnc(N(C)CC2CCCN2)cn1 (stereo not shown) [Compound 534] | 50 to 75
55 | CCOc1cn2nc(C)cc2cc1C(=O)Nc1cnc(N2CC(N)CC(O)C2)cn1 (stereo not shown) [Compound 535] | > 75
56 | CCOc1cn2nc(C)cc2cc1C(=O)Nc1cnc(NCC2(F)CNC2)cn1 [Compound 536] | < 50
57 | CCOc1cn2nc(C)cc2cc1C(=O)Nc1cnc(NC2COC3(CNC3)C2)cn1 (stereo not shown) [Compound 537] | < 50
58 | CCOc1cn2nc(C)cc2cc1C(=O)Nc1cnc(N(C)CC2CCNC2)cn1 (stereo not shown) [Compound 538] | 50 to 75
